{"source": "patent US20150274680A1", "about": "“THERAPEUTIC OR PROPHYLACTIC AGENT FOR TUMOR LYSIS SYNDROME” (University of Fukui, priority 2012, published 2015)", "format_in_all_cases": "in vivo, human", "key": {"[1]": {"test_system": "malignant tumor patients with tumor lysis syndrome", "test": "Prophylactic effect on serum uric acid levels when chemotherapy is performed on malignant tumor patients with tumor lysis syndrome (Example 3)", "settings": "oral once daily from before chemotherapy, adult and pediatric patients; written in present tense, no data", "experimental": "In order to investigate prophylactic effects of febuxostat on tumor lysis syndrome, febuxostat is orally administered once a day, daily, from before chemotherapy is performed on a malignant tumor adult patient with tumor lysis syndrome, and an assessment is made by using serum uric acid levels as indicators. In addition, also for a malignant tumor pediatric patient with tumor lysis syndrome, similar investigation is conducted with febuxostat."}, "[2]": {"test_system": "patients with hematological malignancies at low or intermediate risk for tumor lysis syndrome", "test": "Prophylactic effect on serum uric acid, renal function and urinary uric acid excretion in patients with hematological malignancies receiving chemotherapy (Example 2)", "experimental": "In order to investigate the prophylactic effects of febuxostat on tumor lysis syndrome, 10 mg of febuxostat (the starting dose in gout and hyperuricemia) was orally administered once a day, daily, from just before or the day before chemotherapy was performed on patients with hematological malignancies at low or intermediate risk for tumor lysis syndrome, and the serum uric acid level and the renal function on the fifth day of administration were compared with those before the start of febuxostat administration. For cases in which urine collection was possible, the urinary excretion level of uric acid on the fifth day of administration was compared with that before the start of febuxostat administration. […] Seven male and female cases (6 males and 1 female), aged 36 to 79 (median 70), acute myeloid leukemia (AML 3 cases), diffuse large B-cell lymphoma (DLBCL 2 cases), chronic myelomonocytic leukemia (CMML 1 case), chronic myeloid leukemia (CML 1 case), white blood cell count (WBC) 3,200 to 347,000/μL [table]"}, "[3]": {"test_system": "high-risk tumor lysis syndrome patient", "test": "Therapeutic effect on serum uric acid levels and renal function in a high-risk tumor lysis syndrome patient (Example 1)", "experimental": "In order to investigate the therapeutic effects of febuxostat on a high-risk tumor lysis syndrome patient, a high-risk patient with tumor lysis syndrome which had occurred without antitumor therapy, and already presented hyperuricemia, was given transfusions of fresh frozen plasma and packed red blood cells, and then in addition to increasing a urine volume by supplying fluid and to alkalizing urine, febuxostat (60 mg) was orally administered for 3 days, and the serum uric acid levels and renal function were compared with those before administration of febuxostat.\nA person, Myelodysplastic syndrome (MDS), White blood cell count (WBC) 15400/μL"}}}
{"smiles": "Cc1nc(-c2ccc(OCC(C)C)c(C#N)c2)sc1C(=O)O", "note": "[febuxostat, 2-[3-cyano-4-(2-methylpropoxyl)phenyl]-4-methylthiazole-5-carboxylic acid]", "values": [{"measurement": "Prevention of tumor lysis syndrome (serum uric acid levels as indicators)", "setting": "[1]", "result": "effective for the prevention of tumor lysis syndrome"}, {"measurement": "Serum uric acid level (UA), Case 2", "setting": "[2]; Case 2 (AML), fifth day of febuxostat 10 mg/day, 1.9 mg/dL before administration", "result": 2.3, "unit": "mg/dL"}, {"measurement": "Urinary excretion level of uric acid (urinary UA), Case 2", "setting": "[2]; Case 2, fifth day of febuxostat 10 mg/day, 0.8 g/day before administration", "result": 1.6, "unit": "g/day"}, {"measurement": "Estimated glomerular filtration rate (eGFR), Case 2", "setting": "[2]; Case 2, fifth day of febuxostat 10 mg/day, 101 mL/min before administration", "result": 99, "unit": "mL/min"}, {"measurement": "Acute renal failure", "setting": "[2]; all cases, febuxostat 10 mg/day with chemotherapy", "result": "in all cases, acute renal failure was prevented"}, {"measurement": "Serum uric acid levels relative to normal levels", "setting": "[2]; all cases, prophylactic febuxostat 10 mg with chemotherapy, normal level 7.5 mg/dL or less", "result": "maintain the serum uric acid levels within or lower them to within normal levels"}, {"measurement": "Urinary excretion level of uric acid (urinary UA), average", "setting": "[2]; cases where urine collection was possible, fifth day of febuxostat 10 mg/day, 1.2 g/day on average before administration", "result": 0.9, "unit": "g/day"}, {"measurement": "Serum uric acid level (UA), average", "setting": "[2]; fifth day of febuxostat 10 mg once daily oral, average of 7 cases, 6.3 mg/dL on average before administration", "result": 4.6, "unit": "mg/dL"}, {"measurement": "Estimated glomerular filtration rate (eGFR), average", "setting": "[2]; fifth day of febuxostat 10 mg once daily, average, 69.7 mL/min on average before administration", "result": 76.9, "unit": "mL/min"}, {"measurement": "Urinary excretion level of uric acid (urinary UA), severe case with high WBC", "setting": "[2]; severe case in which WBC was high, fifth day of febuxostat 10 mg/day, 2.4 g/day before administration", "result": 0.7, "unit": "g/day"}, {"measurement": "Serum creatinine (Cre)", "setting": "[3]; Day 4, after 3 days of febuxostat 60 mg/day, 0.87 mg/dL before administration", "result": 0.73, "unit": "mg/dL"}, {"measurement": "Estimated glomerular filtration rate (eGFR)", "setting": "[3]; Day 4, after 3 days of febuxostat 60 mg/day, 53 mL/min before administration", "result": 64, "unit": "mL/min"}, {"measurement": "Serum uric acid level (UA)", "setting": "[3]; Day 4, after 3 days of oral febuxostat 60 mg/day, person, MDS, 9.7 mg/dL on the day before administration", "result": 1.7, "unit": "mg/dL"}, {"measurement": "Reduction of serum uric acid level", "setting": "[3]; Day 4 vs day before administration, febuxostat 60 mg/day for 3 days", "result": 82.4, "unit": "%"}]}
